Measured values: the NIST ThermoML archive (doi:10.1021/acs.jced.5b00122)
± gives the expanded uncertainty stated by the source.

Conditions: 298.15 K; 101.33 kPa; Liquid; Vibrating tube method

In order of rising mass density:
1. CC(C)O [propan-2-ol]  781.214 ± 1.6 kg/m3
2. CO [methanol]  787.52 ± 1.6 kg/m3
3. CCO [ethanol]  787.577 ± 1.6 kg/m3
4. CCCO [propan-1-ol]  801.08 ± 1.6 kg/m3
5. CCCOCCO [2-propoxyethanol]  907.878 ± 1.8 kg/m3
6. COCCO [2-methoxyethan-1-ol]  960.892 ± 1.9 kg/m3
